Test results: ChEMBL document CHEMBL3132801, “Meridianin G and its analogs as antimalarial agents” (Medchemcomm, 2013)
≈ marks a conversion by molar mass, not a printed value. Calls of active or inactive are those of the source. The rule behind the calls is not given here.

What was measured:
[1] = Selectivity index, ratio of IC50 for human HepG2 cells to IC50 for Plasmodium falciparum W2; assay type: toxicity, cell-based; conditions: read-out: Ratio IC50
[2] = Selectivity index, ratio of IC50 for pig LLC-PK1 cells to IC50 for Plasmodium falciparum W2; assay type: toxicity, cell-based; conditions: read-out: Ratio IC50
[3] = Selectivity index, ratio of IC50 for human HepG2 cells to IC50 for Plasmodium falciparum D6; assay type: toxicity, cell-based; conditions: read-out: Ratio IC50
Leishmania donovani = experiment: Antileishmanial activity against Leishmania donovani promastigotes after 48 hrs by Alamar Blue assay; assay type: functional, organism-based
[4] = Selectivity index, ratio of IC50 for african green monkey Vero cells to IC50 for Plasmodium falciparum D6; assay type: toxicity, cell-based; conditions: read-out: Ratio IC50
Vero = experiment: Cytotoxicity against african green monkey Vero cells after 48 hrs by Neutral Red assay; assay type: cell-based; conditions: Chlorocebus sabaeus
[5] = Selectivity index, ratio of IC50 for african green monkey Vero cells to IC50 for Plasmodium falciparum W2; assay type: toxicity, cell-based; conditions: read-out: Ratio IC50
Plasmodium falciparum [6] = experiment: Antimicrobial activity against Plasmodium falciparum W2 after 72 hrs by LDH activity assay; assay type: functional, organism-based
HepG2 = experiment: Cytotoxicity against human HepG2 cells after 48 hrs by Neutral Red assay; assay type: cell-based; conditions: HepG2, 48 h
LLC-PK1 = experiment: Cytotoxicity against a pig LLC-PK1 cells after 48 hrs by Neutral Red assay; assay type: cell-based; conditions: Sus scrofa, LLC-PK1, 48 h
[7] = Selectivity index, ratio of IC50 for pig LLC-PK1 cells to IC50 for Plasmodium falciparum D6; assay type: toxicity, cell-based; conditions: read-out: Ratio IC50
Plasmodium falciparum [8] = experiment: Antimicrobial activity against Plasmodium falciparum D6 after 72 hrs by LDH activity assay; assay type: functional, organism-based
Cryptococcus neoformans = experiment: Antimicrobial activity against Cryptococcus neoformans by NCCLS method; assay type: functional, organism-based
Staphylococcus aureus [9] = experiment: Antimicrobial activity against Staphylococcus aureus by NCCLS method; assay type: functional, organism-based
Staphylococcus aureus [10] = experiment: Antimicrobial activity against methicillin-resistant Staphylococcus aureus by NCCLS method; assay type: functional, organism-based
Aspergillus fumigatus = experiment: Antimicrobial activity against Aspergillus fumigatus by NCCLS method; assay type: functional, organism-based
Candida albicans = experiment: Antimicrobial activity against Candida albicans by NCCLS method; assay type: functional, organism-based
[11] = Leishmania donovani, 48 h, read-out: IC50
[12] = Plasmodium falciparum, W2, 72 h, read-out: IC50
[13] = Plasmodium falciparum, D6, 72 h, read-out: IC50
[14] = Staphylococcus aureus, read-out: IC50

| Structure (SMILES) | selectivity ratio [1] | selectivity ratio [2] | selectivity ratio [3] | IC90 (Leishmania donovani) | IC50 (Leishmania donovani; [11]) [µM] | selectivity ratio [4] | IC50 (Vero) [µM] | selectivity ratio [5] | IC50 (Plasmodium falciparum [6]; [12]) [µM] | IC50 (HepG2) [µM] | IC50 (LLC-PK1) [µM] | selectivity ratio [7] | IC50 (Plasmodium falciparum [8]; [13]) [µM] | MBC (Cryptococcus neoformans) | MIC (Cryptococcus neoformans) | IC50 (Plasmodium falciparum [6]) | other results |
| --- | --- | --- | --- | --- | --- | --- | --- | --- | --- | --- | --- | --- | --- | --- | --- | --- | --- |
| Cc1noc(C)c1Cn1cc(-c2ccnc(N)n2)c2cc(Br)ccc21 | > 4.3 | > 4.3 | > 6.5 | inactive | 107 | > 6.5 | > 63 | > 4.3 | 14.6 | > 63 | > 63 | > 6.5 | 9.62 | – | – | – | – |
| O=C1NC(c2c[nH]c3ccccc23)Nc2ccccc21 (centres undefined) | – | – | – | – | – | – | – | – | – | – | – | – | – | – | – | – | Activity (Leishmania donovani): inactive; Activity (Plasmodium falciparum [6]): inactive; Activity (Plasmodium falciparum [8]): inactive |
| Nc1nccc(-c2cn(C(=O)N3CCOCC3)c3ccccc23)n1 | > 25.1 | > 25.1 | > 19.3 | inactive | – | > 19.3 | > 77 | > 25.1 | 3.08 | > 77 | > 77 | > 19.3 | 4.01 | – | – | – | IC50 (Leishmania donovani): Not Active |
| Nc1nccc(-c2c[nH]c3ccc(Br)cc23)n1 [MERIDIANIN C] | > 7.4 | > 7.4 | > 6 | – | 64.9 | > 6 | > 87 | > 7.4 | 11.7 | > 87 | > 87 | > 6 | 14.4 | inactive | inactive | – | IC50 (Cryptococcus neoformans): 56.5 µM; IC50 (Staphylococcus aureus [9]): Not Active; MBC (Staphylococcus aureus [9]): inactive; MIC (Staphylococcus aureus [9]): inactive; IC50 (Staphylococcus aureus [10]): Not Active; MBC (Staphylococcus aureus [10]): inactive; MIC (Staphylococcus aureus [10]): inactive; Activity (Aspergillus fumigatus): inactive; Activity (Candida albicans): inactive |
| COc1cccc2c1C(=O)c1c(O)c3c(c(O)c1C2=O)C[C@@](O)(C(=O)CO)C[C@@H]3O[C@H]1C[C@H](N)[C@H](O)[C@H](C)O1 [DOXORUBICIN] | – | – | – | – | – | – | 7 | – | – | 2 | < 1 | – | – | – | – | – | – |
| COCCn1cc(-c2ccnc(N)n2)c2cc(Br)ccc21 | – | – | – | – | 23.6 | – | > 72 | – | – | > 72 | 43 | – | – | 57.6 µM (≈ 20 µg/mL) | 57.6 µM (≈ 20 µg/mL) | Not Active | IC50 (Cryptococcus neoformans): 27.4 µM; IC50 (Staphylococcus aureus [9]): Not Active; MBC (Staphylococcus aureus [9]): inactive; MIC (Staphylococcus aureus [9]): inactive; IC90 (Leishmania donovani; Leishmania donovani, 48 h): 52.2 µM; IC50 (Staphylococcus aureus [10]): Not Active; MBC (Staphylococcus aureus [10]): inactive; MIC (Staphylococcus aureus [10]): inactive; Activity (Aspergillus fumigatus): inactive; IC50 (Plasmodium falciparum [8]): Not Active; Activity (Candida albicans): inactive |
| Nc1nccc(-c2cn(CN3C(=O)c4ccccc4C3=O)c3ccc(Br)cc23)n1 | – | – | – | – | – | – | – | – | – | – | – | – | – | inactive | inactive | – | IC50 (Cryptococcus neoformans): 26.9 µM; IC50 (Staphylococcus aureus [9]): Not Active; MBC (Staphylococcus aureus [9]): inactive; MIC (Staphylococcus aureus [9]): inactive; Activity (Leishmania donovani): inactive; IC50 (Staphylococcus aureus [10]): Not Active; MBC (Staphylococcus aureus [10]): inactive; MIC (Staphylococcus aureus [10]): inactive; Activity (Plasmodium falciparum [6]): inactive; Activity (Aspergillus fumigatus): inactive; Activity (Plasmodium falciparum [8]): inactive; Activity (Candida albicans): inactive |
| CCOc1ccccc1C(=O)n1cc(-c2ccnc(N)n2)c2ccccc21 | – | – | – | – | 47.4 | – | > 70 | – | – | > 70 | > 70 | – | – | inactive | inactive | Not Active | IC50 (Cryptococcus neoformans): 45.6 µM; IC50 (Staphylococcus aureus [9]): Not Active; MBC (Staphylococcus aureus [9]): inactive; MIC (Staphylococcus aureus [9]): inactive; IC50 (Staphylococcus aureus [10]): Not Active; MBC (Staphylococcus aureus [10]): inactive; MIC (Staphylococcus aureus [10]): inactive; Activity (Aspergillus fumigatus): inactive; IC50 (Plasmodium falciparum [8]): Not Active; Activity (Candida albicans): inactive |
| C[C@@H]1CC[C@H]2[C@@H](C)C(=O)O[C@@H]3O[C@@]4(C)CC[C@@H]1[C@]32OO4 [ARTEMISININ] | – | – | – | – | – | – | – | – | < 0.09 | – | – | – | < 0.09 | – | – | – | – |
| N=C(N)c1ccc(OCCCCCOc2ccc(C(=N)N)cc2)cc1 [PENTAMIDINE] | – | – | – | – | – | – | – | – | – | – | – | – | – | – | – | – | IC90 (Leishmania donovani; Leishmania donovani, 48 h): 6.21 µM |
| CN1CCN(C(=O)n2cc(-c3ccnc(N)n3)c3cc(Br)ccc32)CC1 | – | – | – | – | 40.5 | – | > 60 | – | – | > 60 | > 60 | – | – | – | – | Not Active | IC90 (Leishmania donovani; Leishmania donovani, 48 h): 108 µM; IC50 (Plasmodium falciparum [8]): Not Active |
| Nc1nccc(-c2cn(Cc3c4ccccc4cc4ccccc34)c3ccccc23)n1 | > 5.7 | > 5.7 | > 8.9 | – | 80 | > 8.9 | > 63 | > 5.7 | 11 | > 63 | > 63 | > 8.9 | 7.06 | – | – | – | – |
| Nc1nccc(-c2cn(C(=O)c3ccccc3)c3ccccc23)n1 | > 17.4 | > 17.4 | > 7 | inactive | – | > 7 | > 80 | > 17.4 | 4.58 | > 80 | > 80 | > 7 | 11.4 | – | – | – | IC50 (Leishmania donovani): Not Active |
| Nc1nccc(-c2c[nH]c3ccccc23)n1 | > 26.8 | > 24.1 | > 12.3 | inactive | – | > 12.3 | 119 | > 26.8 | 4.44 | > 119 | 107 | > 11.1 | 9.69 | – | – | – | IC50 (Leishmania donovani): Not Active |
| CN1CCN(C(=O)n2cc(-c3ccnc(N)n3)c3ccccc32)CC1 | > 5.1 | > 5.1 | > 7.7 | inactive | – | > 7.7 | > 74 | > 5.1 | 14.5 | > 74 | > 74 | > 7.7 | 9.63 | – | – | – | IC50 (Leishmania donovani): Not Active |
| O=C1NC(c2c[nH]c3ccc(Br)cc23)Nc2ccccc21 (centres undefined) | – | – | – | – | 79.9 | – | > 73 | – | – | 73 | 53 | – | – | inactive | inactive | Not Active | IC50 (Cryptococcus neoformans): 14.8 µM; MBC (Staphylococcus aureus [9]): inactive; MIC (Staphylococcus aureus [9]): inactive; IC50 (Staphylococcus aureus [9]; [14]): 25.2 µM; MBC (Staphylococcus aureus [10]): inactive; MIC (Staphylococcus aureus [10]): inactive; IC50 (Staphylococcus aureus [10]; [14]): 20.9 µM; Activity (Aspergillus fumigatus): inactive; IC50 (Plasmodium falciparum [8]): Not Active; Activity (Candida albicans): inactive |
| COc1cccc(C(=O)n2cc(-c3ccnc(N)n3)c3ccccc32)c1 | – | – | – | – | – | – | – | – | – | – | – | – | – | – | – | – | Activity (Leishmania donovani): inactive; Activity (Plasmodium falciparum [6]): inactive; Activity (Plasmodium falciparum [8]): inactive |
| O=c1[nH]c(-c2c[nH]c3ccc(I)cc23)nc2ccccc12 | – | – | – | – | 9.17 | – | > 65 | – | – | > 65 | > 65 | – | – | – | – | Not Active | IC90 (Leishmania donovani; Leishmania donovani, 48 h): 14.2 µM; IC50 (Plasmodium falciparum [8]): Not Active |
| Nc1nccc(-c2cn(Cc3ccc(Cl)s3)c3ccccc23)n1 | – | – | – | inactive | 41.3 | – | > 74 | – | – | > 74 | > 74 | – | – | 14.7 µM (≈ 5.01 µg/mL) | 14.7 µM (≈ 5.01 µg/mL) | Not Active | IC50 (Cryptococcus neoformans): 13 µM; IC50 (Staphylococcus aureus [9]): Not Active; MBC (Staphylococcus aureus [9]): inactive; MIC (Staphylococcus aureus [9]): inactive; IC50 (Staphylococcus aureus [10]): Not Active; MBC (Staphylococcus aureus [10]): inactive; MIC (Staphylococcus aureus [10]): inactive; Activity (Aspergillus fumigatus): inactive; IC50 (Plasmodium falciparum [8]): Not Active; Activity (Candida albicans): inactive |
| Cc1noc(C)c1Cn1cc(-c2ccnc(N)n2)c2ccccc21 | – | – | > 6.3 | inactive | – | > 6.3 | > 78 | – | – | > 78 | > 78 | > 6.3 | 12.4 | – | – | Not Active | IC50 (Leishmania donovani): Not Active |
| Nc1nccc(-c2cn(Cc3c4ccccc4cc4ccccc34)c3ccc(Br)cc23)n1 | > 4.5 | > 4.5 | > 4.7 | inactive | – | > 4.7 | > 52 | > 4.5 | 11.6 | > 52 | > 52 | > 4.7 | 11.1 | – | – | – | IC50 (Leishmania donovani): Not Active |
| C[C@@H]1[C@H](O)[C@@H](C)/C=C/C=C/C=C/C=C/C=C/C=C/C=C/[C@H](O[C@@H]2O[C@H](C)[C@@H](O)[C@H](N)[C@@H]2O)C[C@@H]2O[C@](O)(C[C@@H](O)C[C@@H](O)[C@H](O)CC[C@@H](O)C[C@@H](O)CC(=O)O[C@H]1C)C[C@H](O)[C@H]2C(=O)O [AMPHOTERICIN B] | – | – | – | – | – | – | – | – | – | – | – | – | – | 1.35 µM (≈ 1.25 µg/mL) | 1.35 µM (≈ 1.25 µg/mL) | – | IC90 (Leishmania donovani; Leishmania donovani, 48 h): 0.35 µM |
| Nc1nccc(-c2cn(C(=O)N3CCOCC3)c3ccc(Br)cc23)n1 | – | – | – | – | – | – | – | – | – | – | – | – | – | – | – | – | Activity (Leishmania donovani): inactive; Activity (Plasmodium falciparum [6]): inactive; Activity (Plasmodium falciparum [8]): inactive |
